Several values for one entry are separate records, joined by “and”; a condition that tells them apart may be missing. Identical values can stand only once.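 Growth conditions: 96-well plates. Treatment: test compound, 48 hours, 5 concentrations. Analysis: linear interpolation between bracketing concentrations; unreached endpoints set to highest concentration. GI50 = concentration required for 50% inhibition of growth. TGI: total growth inhibition.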
Tested on: MDA-MB-468 breast
Test: inhibition of tumour cell growth, NCI panel, 48 h

SMILES | GI50 | TGI
O=C(Nc1ccc(O)c(NS(=O)(=O)c2ccc(F)cc2)c1)c1ccc(-c2ccccc2)cc1 | 2.48 µM | 10.8 µM
Nc1ncnc2c1c(C(=O)NO)cn2C1OC(CO)C(O)C1O (stereo unspecified) | 0.115 µM | 0.908 µM
Cc1[nH]c2ccccc2c1C1=CC(=O)C=CC1=O | 3.1 µM | 11.2 µM
Cc1cccc2c1NC(=O)C2(c1ccc(O)cc1)c1ccc(O)cc1 | < 0.0181 µM | 4.24 µM
COc1cc(C(=O)Nc2cc(O)c(C/C=C(\C)CCC=C(C)C)c(O)c2)cc2c1O[C@]1(C)CC[C@@H](O)C(C)(C)[C@H]1C2 | 0.816 µM and 0.212 µM | 4.95 µM
O=C(Nc1ccc(Cl)cc1F)c1cc(Cl)ccc1O | 0.429 µM | 3.96 µM
CCNC(=O)c1ccc2c(c1)nc(-c1ccc(Cl)cc1)n2-c1cc(C(C)(C)C)[nH]n1 | 2.26 µM | 8.3 µM
CC#CC(=O)N[C@H]1CCCN(c2c(F)cc(C(N)=O)c3[nH]c(C)c(C)c23)C1 | 11.8 µM | 27 µM
CC(=O)OC1CC(C)c2c(Cl)ncnc21 (stereo unspecified) | > 100 µM | > 100 µM
CCc1cccc(CC)c1NC(=O)c1ccn2c1CCc1cnc(Nc3ccc(N4CCN(C)CC4)cc3OC)nc1-2 | 2.1 µM | 5.91 µM
N#C/C(=C\c1ccc([N+](=O)[O-])s1)c1nc2cc(Br)ccc2s1 | 1.89 µM | 5.42 µM
COc1cccc2cc(-c3nc(C4CCC(C(=O)O)CC4)n4ncnc(N)c34)[nH]c12 (stereo unspecified) | 0.185 µM and 0.257 µM | 1.09 µM and 3 µM
CCOC(=O)c1c(NC(=O)c2ccccc2C(F)(F)F)sc2c1CCC(=O)C2 | 2.35 µM | 7.52 µM
CCCCC/C=C\C/C=C/CCCCCCCCNC(=O)Nc1ccc([N+](=O)[O-])cc1 | 7.63 µM | 73 µM
CS(=O)(=O)c1ccc(-c2[nH]c3ccc(F)cc3c2/C=N/NC(N)=S)cc1 | 2.67 µM | 13.4 µM
COc1cc(C2C(C(=O)OCc3ccccc3)=C(C)NC(C)=C2C(=O)OCc2ccccc2)cc(OC)c1OC | 2.43 µM | > 100 µM
c1ccc(C2=NN[C@H](c3cn(-c4ccccc4)nc3-c3ccccc3)C2)cc1 | 4.18 µM | > 100 µM
CC(C)NCCCCCNc1cc(O)cc2cccnc12 | 2.29 µM | 6.2 µM
OCCN1CCN(c2nc(Nc3ccc(-c4nc5ccccc5[nH]4)cc3)c3cn[nH]c3n2)CC1 | 1.69 µM | 3.23 µM
COc1ccc(C(=O)c2cc(OC)c(OC)c(OC)c2)cc1/C=C/C(=O)c1ccc2c(c1)OCO2 | 1.44 µM | 4.06 µM
CNC(=O)c1c(NC(=O)c2ccc(C(C)C)cc2)sc2c1CCC(=O)C2 | 0.45 µM | 2.33 µM
COc1cc(/C=N/Nc2ncnc3c2cnn3Cc2ccccc2)ccc1O | 7.88 µM | > 25 µM
O=C1c2ccccc2CCC1(Br)Br | 1.2 µM | 2.95 µM
N=C(N)c1ccc(-c2ccc(-c3ccc(Cl)c(Cl)c3)o2)nc1 | 1.82 µM | 3.56 µM
O=C1C(Cl)=C(Nc2ccccn2)C(=O)c2ccccc21 | 1.99 µM | 4.39 µM
Cc1csc(-c2ccc3c(c2)COC3(CCCN(C)C)c2ccc(F)cc2)c1 (stereo unspecified) | 1.7 µM | 3.38 µM
CCCN(CCC)c1ccc(/C=N/NC(=O)c2cccnc2)cc1 | 16.4 µM | 84.2 µM
O=c1cc(-c2ccccc2)nc2cc(-c3ccco3)[nH]n12 | 2.89 µM | 59.5 µM
